Where a name gives a salt, the structure may show the parent alone.
Test system: c-Raf-Mek-Erk cascade
Assay: c-Raf-Mek-Erk ELISA (cell-free reconstituted kinase cascade, Erk phosphorylation)
Format: biochemical, human
Conditions: inhibition of Erk phosphorylation, 1 mM ATP, 10 concentrations 31.6 pM-100 μM, read-out: IC50
Protocol: The inhibitory effect on the following human serine/threonine and tyrosine kinases of the compounds of the invention was tested in conventional kinase assays: PKB/Akt1, c-Raf-Mek-Erk, B-Raf-Mek-Erk, Mek-Erk, MAPKs, PDGFRbeta, Flt-3, c-Kit, c-Abl, KDR, FGFR1 and IGF1R. Both the full-length kinases and truncated fragments—but at least the cytoplasmic kinase domains—were employed. The kinases were prepared as recombinant fusion proteins with GST (glutathion S-transferase) or HIS Tag in Sf9 cell culture. Depending on the substrate type, the various kinase reactions were carried out in sandwich ELISA formates or by means of a simple substrate adsorption assay on 96-well Flashplates (Perkin Elmer).
The testing on substances on the c-Raf-Mek-Erk cascade is described in detail below. Selected test results for the c-Raf-Mek-Erk assays are then listed.
Procedure: c-Raf-Mek-Erk ELISA
Potential inhibitors were firstly investigated at a concentration of 20 μg/ml in initial single-dose determinations on 96-well microtiter plates (MTPs). Substances with >70% inhibition were employed for dose-response studies.
Reconstitution of the c-Raf-Mek-Erk cascade was quantified with the aid of a cell-free ELISA.
A typical kinase assay was carried out in a final volume of 50 μl with in each case 20-150 ng of Raf, Mek, Erk protein, 1 mM ATP, 10 mM MgCl2, 150 mM NaCl, 25 mM beta-glycerophosphate, 25 mM Hepes pH 7.5. Before the kinase reaction, the test substances were each preincubated singly with each of the three kinase proteins at room temperature for 30 minutes. For the kinase reaction, the kinases preincubated with test substance were combined and incubated at 26° C. for 30 minutes. The reaction was stopped by a final concentration of 2% SDS and 10 minutes at 50° C. in a heating block.
For the immunodetection, the reaction mixtures were transferred to 96-well MTPs coated with anti-Erk Ab(K-23, Santa Cruz Biotechnology, incubated at room temperature for 60 minutes and washed 3× with TBST. Anti-phospho-Erk Ab (#9106, New England Biolabs) 1:500 in 50 μl of TBST/1% BSA, was added and incubated at 4° C. overnight. After the MTPs had been washed 3× with TBST, secondary anti-mouse IgG^POD conjugate (#NA931, Pharmacia) 1:2500 was added, incubated at room temperature for 1 h and again washed 3× with TBST. For colorimetric detection of the kinase reaction, 50 μl of OPD (o-phenyldiamine dihydrochloride) chromogen buffer were pipetted into each of the wells and incubated at 37° C. for 30 minutes. The colour reaction was then determined in an ELISA reader at 492 nm.
The experimental determination of dose-response plots took place using the same experimental design with 10 semilogarithmically graded concentrations from 31.6 pM-100 μM. The IC50 values were calculated in GraphPadPrism.

| IC50 | SMILES |
| --- | --- |
| ~1 µM | C=CCNC(=S)Nc1ccc2ncc(-c3ccccc3)nc2n1 [Example 1, 1-allyl-3-(3-phenylpyrido[2,3-b]pyrazin-6-yl)thiourea] |
| 16 µM | C=CCNC(=S)Nc1ccc2ncc(-c3ccc4ccccc4c3)nc2n1 [Example 2, 1-Allyl-3-(3-naphthalen-2-ylpyrido[2,3-b]pyrazin-6-yl)thiourea] |
| ~1 µM | C=CCNC(=S)Nc1ccc2ncc(-c3ccc(OC)cc3)nc2n1 [Example 3, 1-Allyl-3-[3-(4-methoxyphenyl)pyrido[2,3-b]pyrazin-6-yl]thiourea] |
| ~1 µM | C=C(C)CNC(=S)Nc1ccc2ncc(-c3ccccc3)nc2n1 [Example 5, 1-(2-Methylallyl)-3-(3-phenylpyrido[2,3-b]pyrazin-6-yl)thiourea] |
| ~100 µM | C=C(C)CNC(=S)Nc1ccc2ncc(-c3ccc4ccccc4c3)nc2n1 [Example 6, 1-(2-Methylallyl)-3-(3-naphthalen-2-ylpyrido[2,3-b]pyrazin-6-yl)thiourea] |
| 43 µM | C=C(C)CNC(=S)Nc1ccc2ncc(-c3ccc(OC)cc3)nc2n1 [Example 7, 1-[3-(4-Methoxyphenyl)pyrido[2,3-b]pyrazin-6-yl]-3-(2-methylallyl)thiourea] |
| > 100 µM | O=[N+]([O-])c1ccc(NC(=S)Nc2ccc3ncc(-c4ccc5ccccc5c4)nc3n2)cc1 [Example 8, 1-(3-Naphthalen-2-ylpyrido[2,3-b]pyrazin-6-yl)-3-(4-nitrophenyl)thiourea] |
| > 100 µM | COc1ccc(-c2cnc3ccc(NC(=S)Nc4ccc([N+](=O)[O-])cc4)nc3n2)cc1 [Example 9, 1-[3-(4-Methoxyphenyl)pyrido[2,3-b]pyrazin-6-yl]-3-(4-nitrophenyl)thiourea] |
| > 100 µM | CC(C)(C)NC(=S)Nc1ccc2ncc(-c3ccccc3)nc2n1 [Example 10, 1-tert-Butyl-3-(3-phenylpyrido[2,3-b]pyrazin-6-yl)thiourea] |
| 0.9 µM | S=C(Nc1ccc2ncc(-c3ccccc3)nc2n1)NC1CC1 [Example 11, 1-Cyclopropyl-3-(3-phenylpyrido[2,3-b]pyrazin-6-yl)thiourea] |
| > 100 µM | S=C(NCc1ccccc1)Nc1ccc2ncc(-c3ccccc3)nc2n1 [Example 13, 1-Benzyl-3-(3-phenylpyrido[2,3-b]pyrazin-6-yl)thiourea] |
| ~50 µM | Fc1ccc(NC(=S)Nc2ccc3ncc(-c4ccccc4)nc3n2)cc1 [Example 14, 1-(4-Fluorophenyl)-3-(3-phenylpyrido[2,3-b]pyrazin-6-yl)thiourea] |
| > 100 µM | Cc1ccc(NC(=O)Nc2ccc3ncc(-c4ccccc4)nc3n2)cc1 [Example 33, 1-(3-Phenylpyrido[2,3-b]pyrazin-6-yl)-3-p-tolylurea] |
| > 100 µM | O=C(Nc1ccc(Cl)c(C(F)(F)F)c1)Nc1ccc2ncc(-c3ccccc3)nc2n1 [Example 34, 1-(4-Chloro-3-trifluoromethylphenyl)-3-(3-phenylpyrido[2,3-b]pyrazin-6-yl)urea] |
| 15 µM | O=C(NCCN1CCOCC1)Nc1ccc2ncc(-c3ccccc3)nc2n1 [Example 35, 1-(2-Morpholin-4-ylethyl)-3-(3-phenylpyrido[2,3-b]pyrazin-6-yl)urea] |

Same assay, conditions: read-out: IC50 values, inhibition of Erk phosphorylation

| IC50 | SMILES |
| --- | --- |
| 0.4 µM | C=CCNC(=S)Nc1ccc2ncc(-c3ccc(O)cc3)nc2n1 [Example 4, 1-Allyl-3-[3-(4-hydroxyphenyl)pyrido[2,3-b]pyrazin-6-yl]thiourea hydrochloride] |
| 0.4 µM | CNC(=S)Nc1ccc2ncc(-c3ccccc3)nc2n1 [Example 12, 1-Methyl-3-(3-phenylpyrido[2,3-b]pyrazin-6-yl)thiourea] |

Test system: not given
Assay: not given
Conditions: not given

| melting point | SMILES |
| --- | --- |
| 350 °C (dec.) | C#CCNC(=S)Nc1ccc2ncc(-c3ccc(O)cc3)nc2n1 [Example 24, 1-[3-(4-Hydroxyphenyl)pyrido[2,3-b]pyrazin-6-yl]-3-prop-2-ynylthiourea] |
| 240 °C (dec.) | CC=CNC(=S)Nc1ccc2nc(-c3ccc(O)cc3)c(-c3ccc(O)cc3)nc2n1 [Example 28, 1-[2,3-Bis(4-hydroxyphenyl)pyrido[2,3-b]pyrazin-6-yl]-3-(propenyl)thiourea] |

From patent US8193186B2, “Pyridopyrazines and the use thereof as kinase inhibitors” (AEterna Zentaris GmbH, priority 2003, dated 2012)
